Values quoted from earlier work as cited in patent US20080319079A1 (priority 2006, published 2008).

Tests used:
[1] = tested on: patients with reversible obstructive respiratory diseases; conditions: for duration of action (bronchodilation): patients with asthma and related respiratory illnesses, inhalation
[2] = repeated doses administered frequently up to a maximum dose of 80 μg per day

SMILES	duration of action (bronchodilation) [1]	side effects [2]	onset of action ([1]; after inhalation)
CC(C)(C)NCC(O)c1cc(O)cc(O)c1 (centres unmarked) [terbutaline]	four to six		
COc1ccc(CC(C)NCC(O)c2ccc(O)c(NC=O)c2)cc1 (centres unmarked) [formoterol, N-[2-hydroxy-5-(1-hydroxy-2-((2-(4-methoxyphenyl)-1-methylethyl)-amino)-ethyl)phenyl]formamide]		no more side effects than short acting bronchodilators	
OCc1cc(C(O)CNCCCCCCOCCCCc2ccccc2)ccc1O (centres unmarked) [Salmeterol]	twelve		approximately thirty
CC(C)(C)NCC(O)c1ccc(O)c(CO)c1 (centres unmarked) [salbutamol]	four to six		
